In patent US12435061B2 (priority 2020, dated 2025):
In brackets after ≈: the same amount, converted by molar mass. Read-outs that look alike come from different tables or passages of the source.

How the values were obtained:
[1] = biological target: T1, hTRPV3 (Homo sapiens (Human), UniProt Q8NET8); test: Whole-cell patch clamp, hTRPV3 Phase 1 / Phase 2 currents; type: cell-based
Outline: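 Currents are activated by 20 μM 2-APB or by perfusate at 28 °C or warmer, in Ringer's solution, and quantified at ±80 mV.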

[2] = biological target: T1, hTRPV3; test: hTRPV3 HAMA IC50 assay (Hamamatsu FDSS6000 calcium flux, TRex-293 cells); settings: 5 min
Experimental: IC50s were calculated using CBIS from ChemInnovation (San Diego).

[3] = Aqueous solubility assay in Normal Ringer Solution; settings: Normal Ringer Solution, saline or isotonic, kinetic from dmso stock
Experimental: Following vortex and incubation for a sufficient time (e.g. 40 minutes at room temperature), solutions were filtered, quenched with acetonitrile, and analyzed by Liquid Chromotography. Solubility Limits were determined by comparison to a standard curve.

[4] = Metabolic Stability assay, rat liver microsomes; type: in vitro ADME; settings: read-out: LM T1/2 (min) rat
Outline: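 Reactions in human or rat liver microsomes at 37 °C were started with an NADPH-regenerating system, using 1 μM compound initially. Samples were taken at 0, 7, 15, 30 and 60 min, quenched in ice-cold acetonitrile/MeOH/H2O, and quantified by HPLC/MS/MS.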

[5] = Phase 1 current, inward, whole-cell patch clamp, read-out: hTRPV3 Patch P1 Inwd
[6] = Phase 1 current, read-out: hTRPV3 (nM) (Phase 1)
[7] = Phase 2 current, inward, whole-cell patch clamp, read-out: hTRPV3 Patch P2 Inwd
[8] = Phase 2 current, read-out: hTRPV3 (nM) (Phase 2)
[9] = Phase 1 current, human TRPV3, read-out: hTRPV3 (nM) Phase 1

T1 sequence (Q8NET8 whole entry): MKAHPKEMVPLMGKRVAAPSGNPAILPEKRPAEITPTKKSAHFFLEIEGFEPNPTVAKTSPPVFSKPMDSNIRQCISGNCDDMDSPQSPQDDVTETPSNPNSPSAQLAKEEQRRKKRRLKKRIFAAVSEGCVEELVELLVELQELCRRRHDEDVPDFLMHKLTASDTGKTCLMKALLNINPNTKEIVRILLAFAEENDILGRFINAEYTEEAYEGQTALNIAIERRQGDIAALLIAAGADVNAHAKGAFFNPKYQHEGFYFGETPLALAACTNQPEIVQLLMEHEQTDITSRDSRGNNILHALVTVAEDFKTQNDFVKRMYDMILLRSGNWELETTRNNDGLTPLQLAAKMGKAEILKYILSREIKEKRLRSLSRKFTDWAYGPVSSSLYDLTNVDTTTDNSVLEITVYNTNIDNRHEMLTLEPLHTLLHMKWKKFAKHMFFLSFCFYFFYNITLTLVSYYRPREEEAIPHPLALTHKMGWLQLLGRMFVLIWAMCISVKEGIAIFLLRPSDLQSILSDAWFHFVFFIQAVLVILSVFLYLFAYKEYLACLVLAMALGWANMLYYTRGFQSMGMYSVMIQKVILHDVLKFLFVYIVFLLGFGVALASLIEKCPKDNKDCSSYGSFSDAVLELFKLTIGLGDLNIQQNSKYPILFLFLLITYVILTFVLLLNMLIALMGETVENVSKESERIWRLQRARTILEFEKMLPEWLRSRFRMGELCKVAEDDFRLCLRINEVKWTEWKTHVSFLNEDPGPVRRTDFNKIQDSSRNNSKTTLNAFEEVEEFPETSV

Row | Compound | IC50 [1, 5] [nM] | IC50 [1, 6] [nM] | hTRPV3 HAMA IC50 (nM) (5 min) [2] | IC50 [1, 7] [nM] | IC50 [1, 8] [nM] | further results
1 | FC(F)(F)c1ccc(O[C@H]2CCN(c3ccccc3-c3ccccc3)C2)nc1 [Compound 1-27, (S)-2-(1-(biphenyl-2-yl)pyrrolidin-3-yloxy)-5-(trifluoromethyl)pyridine] | > 1000 | > 3200 | no fit (5 min) |  |  | 
2 | FC(F)(F)c1ccc(O[C@@H]2CCN(c3ccccc3-c3ccccc3)C2)nc1 [Compound 1-28, (R)-2-(1-(biphenyl-2-yl)pyrrolidin-3-yloxy)-5-(trifluoromethyl)pyridine] | > 1000 | > 3200 | no fit (5 min) |  |  | 
3 | N#Cc1cc(-c2ccccc2)ccc1N1CC[C@H](Oc2ccc(C(F)(F)F)cn2)C1 [Compound 1-56, (S)-4-(3-(5-(trifluoromethyl)pyridin-2-yloxy)pyrrolidin-1-yl)biphenyl-3-carbonitrile] |  |  | R2 fail (5 min) | 100 to 1000 | ~504 | 
4 | O=[N+]([O-])c1ccccc1N1CC[C@H](Oc2ccc3cc(Cl)ccc3n2)C1 [Compound 1-68, (S)-6-chloro-2-(1-(2-nitrophenyl)pyrrolidin-3-yloxy)quinoline] | > 1000 | > 3200 | no fit (5 min) | > 1000 | > 3200 | 
5 | Nc1ccccc1N1CC[C@H](Oc2ccc3cc(Cl)ccc3n2)C1 [Compound 1-69, (S)-2-(3-(6-chloroquinolin-2-yloxy)pyrrolidin-1-yl)aniline] |  |  | no fit (5 in) |  |  | hTRPV3 (nM) (Phase 2) ([1]; Phase 2 current): Agonist (Phase 2)
6 | O=[N+]([O-])c1cc(-c2ccccc2)ccc1N1CC[C@H](Oc2ccc3cc(Cl)ccc3n2)C1 [Compound 1-70, (S)-6-chloro-2-(1-(3-nitrobiphenyl-4-yl)pyrrolidin-3-yloxy)quinoline] | > 1000 | > 3200 | no fit (5 min) | > 1000 | > 3200 | 
7 | Nc1cc(-c2ccccc2)ccc1N1CC[C@H](Oc2ccc3cc(Cl)ccc3n2)C1 [Compound 1-71, (S)-4-(3-(6-chloroquinolin-2-yloxy)pyrrolidin-1-yl)biphenyl-3-amine] |  | > 3200 | no fit (5 min) |  | > 3200 | IC50 ([1]; hTRPV3 Patch P1 Inwd (nM), Phase 1 current, inward, whole-cell patch clamp): > 1000 nM; IC50 ([1]; hTRPV3 Patch P2 Inwd (nM), Phase 2 current, inward, whole-cell patch clamp): > 1000 nM
8 | NC(=O)c1c(-c2ccccc2)cccc1N1CC[C@H](Oc2ccc(C(F)(F)F)cn2)C1 [Compound 1-72, (S)-3-(3-(5-(trifluoromethyl)pyridin-2-yloxy)pyrrolidin-1-yl)biphenyl-2-carboxamide] |  |  | no fit (5 min) | > 1000 | > 3200 | hTRPV3 (nM) (Phase 1) ([1]; Phase 1 current): Agonist
9 | CCOC(=O)COc1cc(-c2ccccc2)ccc1N1CC[C@H](Oc2ccc(C(F)(F)F)cn2)C1 [Compound 1-134, (S)-ethyl 2-(4-(3-(5-(trifluoromethyl)pyridin-2-yloxy)pyrrolidin-1-yl)biphenyl-3-yloxy)acetate] | > 1000 | ~4820 | no fit (5 min) | > 1000 | > 3200 | 
10 | OCc1cc(-c2ccccc2C(F)(F)F)ccc1N1CC[C@H](Oc2ccc(C(F)(F)F)cn2)C1 [Compound 1-152, (S)-(2′-(trifluoromethyl)-4-(3-(5-(trifluoromethyl)pyridin-2-yloxy)pyrrolidin-1-yl)biphenyl-3-yl)methanol] | 10 to 100 | 20.4 | no fit (5 min) |  |  | 
11 | CC(C)c1ccccc1-c1ccc([C@H]2CCN(C(=O)c3ccc(F)cn3)C2)c(CO)c1 [Compound 2-78] | 100 to 1000 |  |  |  |  | IC50 [1, 9]: 234 nM; solubility at 40 min [3]: > 15.4 µM; half-life at 1 μM [4]: 12.1 min
12 | COc1cnc(C(=O)N2CCC(c3ccc(-c4ccccc4C4CC4)cc3CO)C2)cn1 (stereo not shown) [Compound 2-107] | 10 to 100 |  |  |  |  | IC50 [1, 9]: 31.5 nM; solubility at 40 min [3]: 9.25 µM (≈ 3.97 µg/mL); half-life at 1 μM [4]: 25.7 min
